Laboratory results from publication PMC12594171, “DKK3-LRP1 complex and a chemical inhibitor regulate Aβ clearance in models of Alzheimer’s disease” (Science Advances, 2025).

Molecular target: low-density lipoprotein receptor-related protein 1 (LRP1), minireceptor mLRPIV (Homo sapiens, UniProt Q07954)
Assay: SPR (Biacore T200, mLRPIV immobilized on CM5 chip); also inhibits DKK3 binding to mLRPIV by SPR, IC50 […]

low-density lipoprotein receptor-related protein 1 (LRP1), minireceptor mLRPIV, sequence (Q07954 3331-3778 limits assumed): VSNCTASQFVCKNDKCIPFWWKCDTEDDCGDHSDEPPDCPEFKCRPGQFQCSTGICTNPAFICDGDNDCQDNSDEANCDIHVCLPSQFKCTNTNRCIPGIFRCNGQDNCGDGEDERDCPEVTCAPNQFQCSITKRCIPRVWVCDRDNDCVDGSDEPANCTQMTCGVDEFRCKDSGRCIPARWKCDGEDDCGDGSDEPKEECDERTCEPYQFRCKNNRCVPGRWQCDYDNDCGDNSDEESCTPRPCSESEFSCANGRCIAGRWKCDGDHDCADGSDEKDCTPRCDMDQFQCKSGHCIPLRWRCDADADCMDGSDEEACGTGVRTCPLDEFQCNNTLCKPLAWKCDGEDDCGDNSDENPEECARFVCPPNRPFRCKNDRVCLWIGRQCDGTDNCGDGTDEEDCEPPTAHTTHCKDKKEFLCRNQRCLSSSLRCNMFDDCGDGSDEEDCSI

SMILES: Cc1nn(-c2ccc(F)cc2)c(C)c1CNC1CCN(C2CC2)CC1 [SJ-300]
- Kd: 7.9 µM
